Where “and” joins values, the source holds several entries; their conditions need not be identical. Equal entries are not always repeated. Marks after values point to notes of the source that are not given here.
Legend:
[1] = test system: α1-4-galactosyltransferase activity of NmSiaDW; test: Donor substrate specificity for the α1-4-galactosyltransferase activity of NmSiaDW using different sugar nucleotides (acceptor S3); format: biochemical, Neisseria meningitidis; conditions: for Percentage conversion (%): acceptor S3 1 mM, donor 2 mM, 30° C.
Method: Galactosyltransferase activity was assayed in reaction buffer (100 mM MES, pH 6.5, 10 mM MgCl2) in the presence of 2 mM UDP-sugars and 1 mM Neu5Acα2-6Galα1-4Neu5AcαProNHCbz in a total volume of 10 μL. Reaction was performed at 30° C. with 0.11 μg NmSiaDW for 10 min or 6.6 μg NmSiaDW for 10 h. Reaction was quenched by addition of 10 μL pre-chilled ethanol and incubated at −20° C. for 30 min. […] GDP-Fuc and CMP-Neu5Ac were also included.
Samples were analyzed using UPLC with EcilpsePlusC18 column or AdvancBio Glycan Map column, Agilent. The samples were further analyzed by electrospray ionization (ESI)-HRMS using a Thermo Electron LTQ-Orbitrap Hybrid MS in a negative mode.

[2] = molecular target: NmSiaDW sialyltransferase activity (Neisseria meningitidis, UniProt O33390); conditions: apparent; varying acceptor, 10 mM CMP-Neu5Ac, pH 8.0, 30° C.
NmCSS = NmCSS (Neisseria meningitidis, UniProt P0A0Z8); format: biochemical; conditions: step 1 in the presence of NmCSS (0.75 mg/mL) for 10 h
[3] = test system: α1-4-galactosyltransferase activity of NmSiaDW; format: biochemical, Neisseria meningitidis
NmCSS and PmAldolase = format: biochemical, Neisseria meningitidis; Pasteurella multocida
[4] = test system: α2-6-sialyltransferase activity of NmSiaDW; format: biochemical, Neisseria meningitidis
[5] = molecular target: NmSiaDW galactosyltransferase activity (Neisseria meningitidis, UniProt O33390); conditions: apparent; varying acceptor, 2 mM UDP-Gal, pH 6.5, 30° C.
Chain of NmSiaDW galactosyltransferase activity (O33390 1-1037): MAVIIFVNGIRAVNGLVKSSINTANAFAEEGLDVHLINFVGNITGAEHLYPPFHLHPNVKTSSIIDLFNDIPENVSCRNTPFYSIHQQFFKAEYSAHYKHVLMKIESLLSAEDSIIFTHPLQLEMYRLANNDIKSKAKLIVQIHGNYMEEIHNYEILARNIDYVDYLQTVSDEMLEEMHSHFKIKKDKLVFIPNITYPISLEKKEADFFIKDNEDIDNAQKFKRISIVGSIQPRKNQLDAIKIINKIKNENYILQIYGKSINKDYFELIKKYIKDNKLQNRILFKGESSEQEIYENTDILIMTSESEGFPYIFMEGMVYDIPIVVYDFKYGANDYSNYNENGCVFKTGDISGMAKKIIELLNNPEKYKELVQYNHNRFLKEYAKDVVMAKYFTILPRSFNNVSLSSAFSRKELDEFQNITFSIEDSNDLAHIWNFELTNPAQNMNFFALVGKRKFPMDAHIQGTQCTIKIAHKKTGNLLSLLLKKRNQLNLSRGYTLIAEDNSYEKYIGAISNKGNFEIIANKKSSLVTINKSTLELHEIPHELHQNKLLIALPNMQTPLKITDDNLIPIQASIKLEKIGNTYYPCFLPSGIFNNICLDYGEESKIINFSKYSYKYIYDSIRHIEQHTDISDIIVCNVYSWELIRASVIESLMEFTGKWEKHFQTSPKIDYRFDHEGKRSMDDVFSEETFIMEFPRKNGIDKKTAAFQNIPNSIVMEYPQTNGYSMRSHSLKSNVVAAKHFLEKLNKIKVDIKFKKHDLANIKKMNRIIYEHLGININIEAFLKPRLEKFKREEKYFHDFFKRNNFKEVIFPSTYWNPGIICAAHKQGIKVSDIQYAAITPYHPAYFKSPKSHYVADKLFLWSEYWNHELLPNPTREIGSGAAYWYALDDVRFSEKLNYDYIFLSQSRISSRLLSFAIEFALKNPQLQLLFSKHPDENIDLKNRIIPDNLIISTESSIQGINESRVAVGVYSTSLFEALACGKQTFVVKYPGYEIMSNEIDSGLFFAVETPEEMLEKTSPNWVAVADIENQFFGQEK

Chain of NmSiaDW sialyltransferase activity (O33390 1-1037): as above
Chain of NmCSS (P0A0Z8 whole entry): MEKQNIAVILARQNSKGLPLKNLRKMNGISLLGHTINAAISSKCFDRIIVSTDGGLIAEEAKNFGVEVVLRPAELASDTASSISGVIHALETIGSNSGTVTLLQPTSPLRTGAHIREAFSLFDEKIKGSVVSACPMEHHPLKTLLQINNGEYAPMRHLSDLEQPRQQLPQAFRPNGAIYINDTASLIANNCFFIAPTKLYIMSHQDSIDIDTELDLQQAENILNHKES

Compound: CC(=O)N[C@H]1[C@H]([C@H](O)[C@H](O)CO)O[C@](OP(=O)(O)OC[C@H]2O[C@@H](n3ccc(N)nc3=O)[C@H](O)[C@@H]2O)(C(=O)O)C[C@@H]1O [CMP-Neu5Ac, cytidine-5′-monophosphate Neu5Ac]
- Percentage conversion (%) ([1]; 11 μg/mL NmSiaDW, 10 min): 0%
- Percentage conversion (%) ([1]; 0.66 mg/mL NmSiaDW, 10 h): 0%

Compound: CC(=O)N[C@H]1[C@H]([C@H](O)[C@H](O)CO)O[C@@](OC[C@H]2O[C@H](O[C@H]3C[C@](OCCCNC(=O)OCc4ccccc4)(C(=O)O)O[C@@H]([C@H](O)[C@H](O)CO)[C@@H]3NC(C)=O)[C@H](O)[C@@H](O)[C@H]2O)(C(=O)O)C[C@@H]1O[C@H]1O[C@H](CO)[C@H](O)[C@H](O)[C@H]1O [G4, Galα1-4Neu5Acα2-6Galα1-4Neu5AcαProNHCbz]
- kcat [2]: 23.1 ± 1.1 s⁻¹

Compound: CC(=O)N[C@H]1[C@H]([C@H](O)[C@H](O)CO)O[C@@](OC[C@H]2O[C@H](O[C@H]3C[C@](OC[C@H]4O[C@H](O[C@H]5C[C@](OCCCNC(=O)OCc6ccccc6)(C(=O)O)O[C@@H]([C@H](O)[C@H](O)CO)[C@@H]5NC(C)=O)[C@H](O)[C@@H](O)[C@H]4O)(C(=O)O)O[C@@H]([C@H](O)[C@H](O)CO)[C@@H]3NC(C)=O)[C@H](O)[C@@H](O)[C@H]2O)(C(=O)O)C[C@@H]1O[C@H]1O[C@H](CO)[C@H](O)[C@H](O)[C@H]1O [G6, Galα1(-4Neu5Acα2-6Galα1)2-4Neu5AcαProNHCbz]
- Km [2]: 230 ± 40 µM
- kcat [2]: 11.9 ± 0.5 s⁻¹

Compound: CC(=O)N[C@H]1[C@H]([C@H](O)[C@H](O)CO)O[C@@](OC[C@H]2O[C@H](O[C@H]3C[C@](OC[C@H]4O[C@H](O[C@H]5C[C@](OC[C@H]6O[C@H](O[C@H]7C[C@](OCCCNC(=O)OCc8ccccc8)(C(=O)O)O[C@@H]([C@H](O)[C@H](O)CO)[C@@H]7NC(C)=O)[C@H](O)[C@@H](O)[C@H]6O)(C(=O)O)O[C@@H]([C@H](O)[C@H](O)CO)[C@@H]5NC(C)=O)[C@H](O)[C@@H](O)[C@H]4O)(C(=O)O)O[C@@H]([C@H](O)[C@H](O)CO)[C@@H]3NC(C)=O)[C@H](O)[C@@H](O)[C@H]2O)(C(=O)O)C[C@@H]1O[C@H]1O[C@H](CO)[C@H](O)[C@H](O)[C@H]1O [G8, Galα1(-4Neu5Acα2-6Galα1)3-4Neu5AcαProNHCbz]
- Km [2]: 250 ± 40 µM
- kcat [2]: 10.3 ± 0.5 s⁻¹

Compound: C[C@@H]1O[C@H](OP(=O)(O)OP(=O)(O)OC[C@H]2O[C@@H](n3cnc4c(=O)[nH]c(N)nc43)[C@H](O)[C@@H]2O)[C@@H](O)[C@H](O)[C@@H]1O [GDP-Fucose]
- Percentage conversion (%) ([1]; 11 μg/mL NmSiaDW, 10 min): 0%
- Percentage conversion (%) ([1]; 0.66 mg/mL NmSiaDW, 10 h): 0%

Compound: O=C(O)C(=O)C[C@H](O)[C@@H](O)[C@@H](O)[C@H](O)[C@H](O)CO [Kdn, 2-keto-3-deoxynonulosonic acid]
- Percentage conversion (%) CMP-Sialic acid (NmCSS): Quantitative ^a

Compound: CC(=O)NC1C(OCCCCl)OC(CO)C(O)C1OC1OC(CO)C(O)C(OC2(C(=O)O)CC(O)C(N=[N+]=[N-])C(C(N=[N+]=[N-])C(C)O)O2)C1O (stereo not drawn) [Leg5,7diN3α2-3Galβ1-3GalNAcβProCl]
- Product [3]: √

Compound: CC(=O)N[C@@H]1C(O)O[C@H](CO)[C@@H](N=[N+]=[N-])[C@@H]1O (stereo partly shown) [ManNAc4N3, 4-azido-4-deoxy-N-acetylmannosamine]
- Percentage conversion (%) CMP-Sialic acid (NmCSS and PmAldolase): 90 ± 3 ^b %

Compound: CC(=O)N[C@H]1[C@H]([C@H](O)[C@H](O)CO)OC(O)(C(=O)O)C[C@@H]1OC(C)=O (stereo partly shown) [Neu4,5Ac, 4-O-acetyl-N-acetylneuraminic acid]
- Percentage conversion (%) CMP-Sialic acid (NmCSS): 53 ± 1 ^a %
- Percentage conversion (%) Transferase Reaction [4]: 0%

Compound: CC(=O)N[C@H]1[C@H]([C@H](O)[C@H](O)COC(C)=O)OC(O)(C(=O)O)C[C@@H]1O (stereo partly shown) [Neu5,9Ac, 9-O-acetyl-N-acetylneuraminic acid]
- Percentage conversion (%) CMP-Sialic acid (NmCSS): 61 ± 2 ^a %
- Percentage conversion (%) Transferase Reaction [4]: 0%

Compound: CO[C@H](CO)[C@@H](O)[C@@H]1OC(O)(C(=O)O)C[C@H](O)[C@H]1NC(C)=O (stereo partly shown) [Neu5Ac8OMe, 8-O-methyl-N-acetylneuraminic acid]
- Percentage conversion (%) CMP-Sialic acid (NmCSS): 79 ± 1 ^a %

Compound: CC(=O)N[C@H]1[C@H]([C@H](O)[C@H](O)CO)OC(O)(C(=O)O)C[C@@H]1O (stereo partly shown) [Neu5Ac, N-acetylneuraminic acid]
- Percentage conversion (%) CMP-Sialic acid (NmCSS): Quantitative ^a

Compound: CC(=O)NC1C(O)CC(OC2C(O)C(CO)OC(OC3C(O)C(CO)OC(OCCCN=[N+]=[N-])C3NC(C)=O)C2O)(C(=O)O)OC1C(O)C(O)CO (stereo not shown) [Neu5Acα2-3Galβ1-3GalNAcβProN3]
- Product [3]: √
- acceptor substrate suitability in words [3]: could also tolerate

Compound: CC(=O)NC1C(O)CC(OCC2OC(OCCCN)C(O)C(O)C2O)(C(=O)O)OC1C(O)C(O)CO (stereo not shown) [Neu5Acα2-6GalβProNH2]
- Product [3]: √

Compound: CC(=O)N[C@H]1[C@H]([C@H](O)[C@H](O)CO)OC(OC[C@H]2O[C@@H](Oc3ccc([N+](=O)[O-])cc3)[C@H](O)[C@@H](O)[C@H]2O)(C(=O)O)C[C@@H]1O (stereo partly shown) [Neu5Acα2-6GalβpNP]
- Product [3]: √

Compound: O=C(CO)N[C@H]1[C@H]([C@H](O)[C@H](O)CO)OC(O)(C(=O)O)C[C@@H]1O (stereo partly shown) [Neu5Gc, N-glycolylneuraminic acid]
- Percentage conversion (%) CMP-Sialic acid (NmCSS): 90 ± 2 ^a %
- Percentage conversion (%) Transferase Reaction [4]: 47 ± 3% and 88 ± 3%

Compound: CC(=O)N[C@H]1[C@H]([C@H](O)[C@H](O)CO)O[C@@](OCCCNC(=O)OCc2ccccc2)(C(=O)O)C[C@@H]1O[C@H]1O[C@H](CO[C@]2(C(=O)O)C[C@H](O[C@H]3O[C@H](CO[C@]4(C(=O)O)C[C@H](O[C@H]5O[C@H](CO[C@]6(C(=O)O)C[C@H](O)[C@@H](NC(C)=O)[C@H]([C@H](O)[C@H](O)CO)O6)[C@H](O)[C@H](O)[C@H]5O)[C@@H](NC(C)=O)[C@H]([C@H](O)[C@H](O)CO)O4)[C@H](O)[C@H](O)[C@H]3O)[C@@H](NC(C)=O)[C@H]([C@H](O)[C@H](O)CO)O2)[C@H](O)[C@H](O)[C@H]1O [S7, Neu5Acα2(-6Galα1-4Neu5Acα2)3-ProNHCbz]
- Km [5]: 70 ± 10 µM
- kcat [5]: 5.5 ± 0.2 s⁻¹

Compound: O=C(O)[C@H]1O[C@H](OP(=O)(O)OP(=O)(O)OC[C@H]2O[C@@H](n3ccc(=O)[nH]c3=O)[C@H](O)[C@@H]2O)[C@H](O)[C@@H](O)[C@H]1O [UDP-GalA]
- Percentage conversion (%) ([1]; 11 μg/mL NmSiaDW, 10 min): 0%
- Percentage conversion (%) ([1]; 0.66 mg/mL NmSiaDW, 10 h): <1%

Compound: CC(=O)N[C@H]1[C@@H](OP(=O)(O)OP(=O)(O)OC[C@H]2O[C@@H](n3ccc(=O)[nH]c3=O)[C@H](O)[C@@H]2O)O[C@H](CO)[C@H](O)[C@@H]1O [UDP-GalNAc]
- Percentage conversion (%) ([1]; 11 μg/mL NmSiaDW, 10 min): 0%
- Percentage conversion (%) ([1]; 0.66 mg/mL NmSiaDW, 10 h): 1.9 ± 0.2%
- donor substrate quality in words ([1]; compared to UDP-Gal, acceptor S3): tolerated as poor donor substrate

Compound: O=C(O)[C@H]1O[C@H](OP(=O)(O)OP(=O)(O)OC[C@H]2O[C@@H](n3ccc(=O)[nH]c3=O)[C@H](O)[C@@H]2O)[C@H](O)[C@@H](O)[C@@H]1O [UDP-GlcA]
- Percentage conversion (%) ([1]; 11 μg/mL NmSiaDW, 10 min): 0%
- Percentage conversion (%) ([1]; 0.66 mg/mL NmSiaDW, 10 h): 0%

Compound: CC(=O)N[C@H]1[C@@H](OP(=O)(O)OP(=O)(O)OC[C@H]2O[C@@H](n3ccc(=O)[nH]c3=O)[C@H](O)[C@@H]2O)O[C@H](CO)[C@@H](O)[C@@H]1O [UDP-GlcNAc]
- Percentage conversion (%) ([1]; 11 μg/mL NmSiaDW, 10 min): 0%
- Percentage conversion (%) ([1]; 0.66 mg/mL NmSiaDW, 10 h): 0%

Compound: CC(=O)N[C@@H]1[C@@H](OP(=O)(O)OP(=O)(O)OC[C@H]2O[C@@H](n3ccc(=O)[nH]c3=O)[C@H](O)[C@@H]2O)O[C@H](CO)[C@@H](O)[C@@H]1O [UDP-ManNAc]
- Percentage conversion (%) ([1]; 11 μg/mL NmSiaDW, 10 min): 0%
- Percentage conversion (%) ([1]; 0.66 mg/mL NmSiaDW, 10 h): 0%

Compound: Leg5,7Ac2α2-3Galβ1-3GalNAcβProN3
- Product [3]: Not Detected

Compound: Neu5Ac7N3α2-6Galα1-4Neu5AcαProNHCbz
- Product [3]: √

Compound: Neu5Ac9N3α2-6Galα1-4Neu5AcαProNHCbz
- Product [3]: √

From US20220145343A1 (priority 2019, published 2022)
